# Legend:
# [1] = Fluorimetric pH titration of the sensor molecules in aqueous buffers; assay type: physicochemical; conditions: for λem / λex / pK / pKa: aqueous buffers; for λem / λex / pK: around 10 μmol/L; for S = F/F0: fluorescent response to the pH changes; for pK: fluorimetric pH titration
# Description: Example 201. Fluorimetric pH titration. The study of the fluorescent response of the sensor molecules to changes in pH was performed in solution in aqueous buffers (in concentrations around 10 μmol/L).
# The resulting curve has a pronounced maximum at pH 7.2 (FIG. 2).
# [2] = pH titration of labeled E. coli bioparticles; assay type: physicochemical; conditions: dye labeled E. coli bioparticles 0.2 mg/mL, 50 mM potassium phosphate buffer, pH 1 to 10, FIG. 4
# Description: Example 303: Labeling E. Coli bioparticles for use in assays of phagocytosis. Escherichia coli Strain K12, lyophilized cells (Sigma, EC1-5G) were resuspended in PBS at 20 mg/mL and vortexed vigorously and sonicated for several minutes. The suspensions were divided into 100 uL aliquots spun down at 10,000×g for 2 minutes, supernatants removed and resuspended in 100 uL of PBS. This was done twice to clean up the E. coli. The amine reactive SE versions of the novel pH dyes were made up in DMSO at concentration of 10 mM. For labeling, 100 uL of the E. coli suspension was combined with 100 uL of the dye stock solution, so 2 mg of E. coli was labeled with 1 umole of dye. The labeling was carried out at 37 C for 45 minutes followed by the same spin down and resuspension procedure as described above 5 times to remove free dye. The final resuspension was 10 mg/mL. pH Titration of labeled E. Coli. The fluorescence of the labeled E. coli was measured at a range of pH values in 50 mM potassium phosphate buffer, from pH 1 to 10, using a Flexstation II (Molecular Devices) plate reader. The conjugates were diluted 1:50 into the potassium phosphate buffers, so the final concentration of the labeled bioparticles was 0.2 mg/mL.
# [3] = Quantum yield determination relative to pH-insensitive standard 180; assay type: physicochemical
# Description: Example 202. Quantum yield determination. Quantum yields at pH=2.0 and pH=10.0 were determined for the compounds 178 and 179 relative to the pH-insensitive standard 180 by comparing integrated absorption and emission spectral curves.
# Compounds 178 and 179 were prepared by treatment of the corresponding succinimidyl esters 111 and 129 with methoxyethylamine. The reference standard 180 was obtained in the reaction of commercial succinimidyl 5-carboxy-tetramethylpdodamine (TAMRA-5-SE) with the same amine.
# neurons = test: Detection of neuronal cells in mixed neuron/astroglial culture; assay type: cell-based, rat
# Description: Astroglial feeder layers were established for one week in culture on glass bottomed culture dishes, 35 mm diameter, coated with Poly-L-Lysine. Neurons from embryonic day 18 rat hippocampi were dissociated in culture medium, and seeded onto the feeder layers at a density of 25-35,000 cells per milliliter, two milliliters per dish, and allowed to grow in neuronal culture medium plus mitotic inhibitors to prevent glial proliferation.
# Cells were pre-stained for 15 minutes with 200 ng/mL Hoercsht to visualize DNA in the nuclei, and 50 ng/mL calcien AM ester to visualize cytoplasm by adding 1000×DMSO stocks of these compounds to the cells in complete medium, then returning them to the cell culture incubator for fifteen minutes at 37 degrees Celsius. Cells were removed, and the medium gently poured off. The cells were immediately placed in 5 uM Compound 129, diluted from a 1 mM DMSO stock into normal saline plus 20 mM HEPES and 20 mM glucose, final pH set to 7.4 with NaOH. The cells were incubated in labeling solution for ten minutes at room temperature, and then gently washed twice with saline (above) minus dye for imaging.
# [4] = Fluorescence response of ratiometric dextran conjugates versus pH; assay type: physicochemical; conditions: 50 mM phosphate buffers
# [5] = tested on: white blood cells (granualcytes); test: Assay of phagocytic activity in whole blood using bioparticles labeled with pH sensing dyes; assay type: cell-based
# Description: Assay of phagocytic activity using bioparticles labeled with pH sensing dyes. A whole blood sample was collected in a sodium heparin tube. Aliquots of whole blood (100 uL) were combined with labeled E. coli (20 uL of 10 mg/mL) in 12×75 mm flow cytometry Falcon tube, and the samples were incubated in a 37° C. water bath for 15 minutes. A negative control was put on ice. After incubation, the tubes were placed in a rack and the red blood cells were lysed with 1 mL of an ammonium chloride lysis solution (0.187 M NH4Cl, 10 mM KHCO3, 0.095 mM EDTA) for 10 minutes at room temperature. The samples were centrifuged at 1200 rcf for 5 minutes, the supernatants were removed, and the cell pellets were resuspended in HBSS buffer. The resuspended cells were put into a 96 well microplate, 100 uL per well, and the plate was spun to settle the cells to the bottom of the wells. Imaging was done on a Zeiss 200M inverted fluorescence microscope using a 40× objective, TRITC filters, a CoolSnap HQ (Photometrics) ccd camera, and Metamorph (Universal Imaging Corp.) acquisition software. […] This would give an overestimation of phagocytic activity in a plate reader experiment, unless other steps were taken such as including a quencher dye.
# [6] = Fluorescent pH response of transferrin conjugates labeled with pH sensing dyes; assay type: physicochemical; conditions: transferrin conjugate of the labeling sensor
# Description: Labeling of transferrin with pH sensing dyes. All materials are from Invitrogen unless otherwise stated. Dissolve transferrin from human serum (Sigma, T4132) in 0.1 M NaHCO3, pH 8.3, to a concentration of 10 mg/mL. Make a 10 mg/mL solution of the succinimidyl ester of the dye in dry DMSO and sonicate briefly to aid in dissolution of the dye. Add a 10 to 30-fold molar excess of the reactive dye solution to the transferrin solution dropwise while stirring. Note that the volume of dye added depends on the specific dye and the amount of transferrin to be labeled. Protect the reaction vessel from light and stir for ˜1 hour at RT. Purify the conjugate on a P-30M gel filtration column (BioRad, 150-4150) in PBS, pH 7.2. Centrifuge the conjugate at 19,000 rpm for 20 minutes to remove aggregates, if present. Determine the degree of labeling by measuring A560 nm/A280 nm.
# HeLa cells = test: Staining of endocytic recycling compartment using transferrin conjugated with pH sensing dye; assay type: cell-based; conditions: transferrin conjugate 20 ug/mL, 45 minutes, 37 C, FIG. 3
# Description: Staining of endocytic recycling compartment using transferrin conjugated with pH sensing dye (compound 129). HeLa (ATCC) cells were plated in a 96 well microplate at 10,000 cells per well in McCoy 5A media with 5% FBS and 4 uM deferoxamine (Sigma). Cells were grown overnight and then rinsed 2 times in DMEM with-out phenol red plus 0.5% FBS. Transferrin conjugates were applied in same media at 20 ug/mL for 45 minutes at 37 C. Cells were then rinsed 1 time with DMEM and imaged on a Zeiss 200M inverted fluorescence microscope using a 40× objective, TRITC filters, a CoolSnap HQ (Photometrics) ccd camera, and Metamorph (Universal Imaging Corp.) acquisition software.
Compound,λem [1],λex [1],S = F/F0 [1],pK [1],further results
CCOC(=O)CCCN(CC)c1cc(OC)c(C2=c3cc4c5c(c3Oc3c2cc2c6c3CCCN6CCC2)CCC[N+]=5CCC4)cc1OC [Compound 155],611 nm,586 nm,53,5.0,
CCN(CC)c1cc2occ(-c3ncc(C(=O)O)o3)c2cc1OC [Compound 152],393 nm,325 nm,,,
Ethyl 4-((2-dimethylamino)-5-methoxyphenyl-4-tetramethylrhodaminyl)(ethyl)amino) butanoate [Compound 133],587 nm,561 nm,180,7.3,
CCN(CCCC(=O)NCCCCCN)c1cc(OC)c(-c2c3ccc(=[N+](C)C)cc-3oc3cc(N(C)C)ccc23)cc1N(C)C [Compound 141],588 nm,560 nm,65,7.4,
"CCN(CCCC(=O)ON1C(=O)CCC1=O)c1cc(O)c(-c2c3ccc(=[N+](C)C)cc-3oc3cc(N(C)C)ccc23)cc1OC.[Cl-] [Compound 189, N-(6-(dimethylamino)-9-(4-((4-(2,5-dioxopyrrolidin-1-yloxy)-4-oxobutyl)(ethyl)amino)-2-hydroxy-5-methoxyphenyl)-3H-xanthen-3-ylidene)-N-methylmethanaminium chloride]",,,,,fluorescence intensity versus pH [2]: large increase in fluorescence at acidic pHs
CCOC(=O)CCCN(CC)c1cc(OC)c(C2=c3cc4c5c(c3Oc3c2cc2c6c3CCCN6CCC2)CCC[N+]=5CCC4)cc1N(C)C [Compound 162],611 nm,587 nm,88,7.2,
CN(C)C=Nc1ccc(-c2c3ccc(=O)cc-3oc3cc(O)ccc23)c(C(=O)O)c1 [Compound 173],517 nm,490 nm,200,7.2,"pH of the maximum of the titration curve ([1]; FIG. 2): 7.2; pKa ([1]; FIG. 2, read-out: pKa, drop in fluorescence (amidine titration curve)): ~8; pKa ([1]; pKa, increase in fluorescence (fluorescein titration curve), FIG. 2): ~5.5"
CCN(CCCC(=O)NCCOC)c1cc(OC)c(-c2c3ccc(=[N+](C)C)cc-3oc3cc(N(C)C)ccc23)cc1OC [Compound 178],,,,,"pKa ([3]; aqueous buffers, Table 4): 4.6; QE (pH = 2.0) ([3]; relative quantum yield, pH = 2.0, relative to standard 180): 0.78; QE (pH = 10.0) ([3]; relative quantum yield, pH = 10.0, relative to standard 180): 0.008"
"CCN(CCCC(=O)ON1C(=O)CCC1=O)c1cc(OC)c(-c2c3ccc(N(C)C)cc3[o+]c3cc(N(C)C)ccc23)cc1N(C)C [Compound 129, Succinimidyl 4-((2-Dimethylamino)-5-methoxyphenyl-4-tetramethylrhodaminyl)(ethyl)amino) butanoate]",,,,,"uptake by glial cells shown by acidification of the preparation (neurons): had in fact taken up; labeling of neurons relative to astrocytes (neurons; 5 uM, ten minutes, room temperature, pH 7.4, TRITC channel): appear bright over the dimly labeled astrocytes; fluorescence in the red channel versus pH ([4]; 10,000 MW dextran conjugate with rhodamine green, 0.1 mg/mL, ex 540, em 600, FIG. 10A): fluorescence does change with pH; fluorescence in the red channel versus pH ([4]; dextran conjugate with rhodamine green at a higher degree of label than Compound 129, 0.1 mg/mL, ex 540, em 600, FIG. 9A): fluorescence does change with pH; fluorescence of cells by flow cytometry ([5]; E. coli labeled with the dye, relative to unlabeled E. coli and iced negative control, FIG. 5): increase in fluorescence; staining seen by fluorescence microscopy ([5]; labeled E. coli, whole blood, 37° C., 15 minutes, FIG. 6): bright vesicular staining of the phagosomes filled with the engulfed E. coli within the cells; pKa [6]: 4.2; fluorescence intensity versus pH [2]: large increase in fluorescence at acidic pHs; staining pattern (HeLa cells): characteristic perinuclear staining pattern of the endocytic recycling compartment"
CN(C)C=Nc1ccc(-c2c3ccc(=[N+](C)C)cc-3oc3cc(N(C)C)ccc23)c(C(=O)O)c1 [Compound 175],576 nm,550 nm,10,7.7,
CCOC(=O)CCCN(CC)c1cc(OC)c(-c2cc3ccc(C(=O)OC)cc3[nH]2)cc1OC [Compound 157],424 nm,349 nm,270,5.4,
"CCN(CCCC(=O)OC)c1cc(OC)c(-c2c3ccc(N(C)C)cc3[o+]c3cc(N(C)C)ccc23)cc1N(C)C [Compound 127, Methyl 4-((2-dimethylamino)-5-methoxyphenyl-4-tetramethylrhodaminyl)(ethyl)amino) butanoate]",587 nm,561 nm,130,7.3,fluorescence upon protonation (titration curve) ([1]; FIG. 1): significant increase in fluorescence upon protonation
CCN(CCCC(=O)NCCCCCC(=O)ON1C(=O)CCC1=O)c1cc(OC)c(-c2c3ccc(=[N+](C)C)cc-3oc3cc(N(C)C)ccc23)cc1N(C)C [Compound 139],588 nm,556 nm,80,5.6,S = F/F0 [6]: 15

# Reference: patent US11867698B2, “Fluorogenic pH sensitive dyes and their method of use” (Life Technologies Corporation, priority 2006, dated 2024)
